Like-named read-outs stand apart in the source and are kept apart here.

The term IC50 denotes the point on the concentration scale where inhibition reaches its midpoint.

One assay has as its target T1, PI3Kγ (p120γ) (Homo sapiens, UniProt P48736).
T1 construct: purchased Promega V1761
As to the kind of experiment: Inhibition of PI3K kinase activity (ADP Glo), PI3Kγ. Particulars: read-out: biochemical potency (PI3Kγ IC50). In short, it runs like this:
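Recombinant p120γ (8 nM, 2× stock) was preincubated with compound for 1 h at rt in HEPES pH 7.4, NaCl, MgCl2 and 0.05% BSA. Reaction was started with PIP2 (0.1 mg/ml, 2×) and ATP (50 μM, 2×) and ran 60 min at rt. ADP formed was read by ADP-Glo luminescence, and IC50 came from a 4-parameter fit.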
For orientation: ADP-Glo first removes unused ATP, then detects ADP through luciferase.

The target of a further assay is T2, PI3Kγ (Homo sapiens, UniProt P48736).
T2 construct: host or cells: THP-1
As to the kind of experiment: PI3Kγ cellular assay in THP-1 cells (AKT pS473 AlphaLISA). Format: cell-based. In short, it runs like this: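 Serum-starved THP-1 cells (1.8×10^5/well, serum-free DMEM) treated with compounds from 4 nM to 30 μM in 2% DMSO, then stimulated and lysed.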
Background: In Alpha technology, singlet oxygen from a donor bead excites a nearby acceptor bead.

Setting [1] is: Table 2, rhMCP-1 stimulated AKT pS473, read-out: cellular potency (PI3Kγ IC50).
Where [2] appears, read: Table 1, rhMCP-1 stimulated AKT pS473, read-out: cellular potency (PI3Kγ IC50).
The mark [3] stands for this setting: Table 6, rhMCP-1 stimulated AKT pS473, read-out: cellular potency (PI3Kγ IC50).

T2 sequence (P48736 whole entry): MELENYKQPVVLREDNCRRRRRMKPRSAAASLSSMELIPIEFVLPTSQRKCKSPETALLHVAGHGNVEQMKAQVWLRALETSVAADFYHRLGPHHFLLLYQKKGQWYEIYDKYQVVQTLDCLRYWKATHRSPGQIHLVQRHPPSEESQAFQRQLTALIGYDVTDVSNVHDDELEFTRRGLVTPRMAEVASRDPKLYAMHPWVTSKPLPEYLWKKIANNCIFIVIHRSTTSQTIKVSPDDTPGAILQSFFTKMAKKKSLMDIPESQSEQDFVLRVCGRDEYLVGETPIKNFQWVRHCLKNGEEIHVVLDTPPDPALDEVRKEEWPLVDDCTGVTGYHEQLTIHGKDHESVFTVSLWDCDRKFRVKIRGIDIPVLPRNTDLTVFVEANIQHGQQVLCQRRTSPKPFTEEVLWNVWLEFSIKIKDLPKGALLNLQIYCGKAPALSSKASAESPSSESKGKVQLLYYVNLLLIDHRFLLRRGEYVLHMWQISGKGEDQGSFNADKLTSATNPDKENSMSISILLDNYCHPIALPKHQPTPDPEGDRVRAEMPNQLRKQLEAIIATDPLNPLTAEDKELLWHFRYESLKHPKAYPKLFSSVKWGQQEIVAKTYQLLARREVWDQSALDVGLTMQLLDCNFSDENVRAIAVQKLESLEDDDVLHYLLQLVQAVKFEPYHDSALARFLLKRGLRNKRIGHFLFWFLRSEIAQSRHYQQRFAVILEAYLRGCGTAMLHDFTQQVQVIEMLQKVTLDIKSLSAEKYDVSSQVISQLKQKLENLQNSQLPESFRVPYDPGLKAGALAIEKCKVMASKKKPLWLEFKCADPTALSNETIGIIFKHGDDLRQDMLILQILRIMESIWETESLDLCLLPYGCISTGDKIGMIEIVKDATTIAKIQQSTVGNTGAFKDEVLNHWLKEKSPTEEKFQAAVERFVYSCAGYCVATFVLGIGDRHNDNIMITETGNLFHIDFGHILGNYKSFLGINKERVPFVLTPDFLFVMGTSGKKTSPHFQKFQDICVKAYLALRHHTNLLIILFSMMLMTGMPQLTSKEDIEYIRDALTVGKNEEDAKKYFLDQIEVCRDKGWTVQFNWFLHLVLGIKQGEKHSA
T1 sequence (P48736 whole entry): as above

`Cc1cc(-c2ccn3nc(N)c(C(=O)N4CCCC4CO)c3n2)cc2c1C(=O)N(C(C)C1CC1)C2` (stereo not drawn) [Example 288]: the IC50 was 100 to 1000 nM on PI3Kγ (p120γ) (Table 2, p120γ) and above 1000 nM at PI3Kγ (setting [1]).
`C[C@H](CO)NC(=O)c1c(N)nn2ccc(-c3cc4c(c(OCC(F)(F)F)c3)C(=O)N([C@@H](C)C3CC3)C4)nc12` [Example 156, 2-Amino-5-{2-[(1S)-1-cyclopropylethyl]-1-oxo-7-(2,2,2-trifluoroethoxy)-2,3-dihydro-1H-isoindol-5-yl}-N-[(2R)-1-hydroxypropan-2-yl]pyrazolo[1,5-a]pyrimidine-3-carboxamide]: the half-inhibitory concentration (IC50) on PI3Kγ (p120γ) (Table 1, p120γ) was below 100 nM; on PI3Kγ (setting [2]), below 100 nM.
In the case of `Cc1cc(-c2ccn3nc(N)c(C(=O)NC[C@H]4CNC(=O)C4)c3n2)cc2c1C(=O)N([C@@H](C)C1CC1)C2` [Example 276], the IC50 on PI3Kγ (p120γ) (Table 2, p120γ) was below 100 nM; on PI3Kγ (setting [1]), 100 to 1000 nM.
On the same counts, the results for `Cc1cc(-c2ccn3nc(N)c(C(=O)N[C@@H](C)C(N)=O)c3n2)cc2c1C(=O)N([C@@H](C)C1CC1)C2` [Example 190] are below 100 nM and 100 to 1000 nM.
For `Cc1cc(-c2ccn3nc(N)c(C(=O)N4CCC4CO)c3n2)cc2c1C(=O)N(C(C)C1CC1)C2` (stereo not drawn) [Example 274] the same measures were below 100 nM and 100 to 1000 nM.
Turning to `C[C@H](CO)NC(=O)c1c(N)nn2ccc(-c3cc4c(c(O[C@H](C)C(F)(F)F)c3)C(=O)N([C@@H](C)C3CC3)C4)nc12` [Example 440], the 50% inhibitory concentration (IC50) at PI3Kγ (p120γ) (Table 6, p120γ) is below 100 nM; on PI3Kγ (setting [3]), 100 to 1000 nM.
For the compound `COc1cncc(NC(=O)c2c(N)nn3ccc(-c4cc5c(c(NS(C)(=O)=O)c4)C(=O)N([C@@H](C)C4CC4)C5)nc23)c1` [Example 387], the IC50 was below 100 nM on PI3Kγ (p120γ) and 100 to 1000 nM on PI3Kγ (AKT pS473, read-out: cellular potency (PI3Kγ IC50)).
Turning to `Cc1cc(-c2ccn3nc(N)c(C(=O)N4CC(C(C)(C)O)C4)c3n2)cc2c1C(=O)N(C(C)C1CC1)C2` (stereo not drawn) [Example 270], the IC50 on PI3Kγ (p120γ) (Table 2, p120γ) was below 100 nM; on PI3Kγ (setting [1]), 100 to 1000 nM.
For `C[C@@H](C1CC1)N1Cc2cc(-c3ccn4nc(N)c(C(=O)N[C@H]5CC[C@@](C)(O)CC5)c4n3)cc(N3CC[C@@H](O)C3)c2C1=O` [Example 151, 2-Amino-5-{2-[(1S)-1-cyclopropylethyl]-7-[(3R)-3-hydroxypyrrolidin-1-yl]-1-oxo-2,3-dihydro-1H-isoindol-5-yl}-N-[cis-4-hydroxy-4-methylcyclohexyl]pyrazolo[1,5-a]pyrimidine-3-carboxamide], the IC50 at PI3Kγ (p120γ) (Table 1, p120γ) is below 100 nM; at PI3Kγ (setting [2]), below 100 nM.
As for `C[C@@H](C1CC1)N1Cc2cc(-c3ccn4nc(N)c(C(=O)NC5CC5)c4n3)cc(NS(C)(=O)=O)c2C1=O` [Example 87, 2-Amino-N-cyclopropyl-5-{2-[(1S)-1-cyclopropylethyl]-7-methanesulfonamido-1-oxo-2,3-dihydro-1H-isoindol-5-yl}pyrazolo[1,5-a]pyrimidine-3-carboxamide], the IC50 on PI3Kγ (p120γ) (Table 1, p120γ) is below 100 nM; at PI3Kγ (setting [2]), below 100 nM.
Regarding `Cc1cc(-c2ccn3nc(N)c(C(=O)NC(C)CO)c3n2)cc2c1C(=O)N([C@@H]1CCC[C@H](O)C1)C2` (stereo partly drawn) [Example 326], the half-inhibitory concentration (IC50) at PI3Kγ (p120γ) (Table 2, p120γ) is below 100 nM; at PI3Kγ (setting [1]), above 1000 nM.
On the same counts, the results for `CNC(=O)c1c(N)nn2ccc(-c3cc(C)c4c(c3)CN([C@@H](C)C3CC3)C4=O)nc12` [Example 216] are below 100 nM and 100 to 1000 nM.
As to `Cc1cc(-c2ccn3nc(N)c(C(=O)N[C@H]4CCC[C@@H](O)C4)c3n2)cc2c1C(=O)N([C@@H](C)C1CC1)C2` [Example 9, 2-Amino-5-{2-[(1S)-1-cyclopropylethyl]-7-methyl-1-oxo-2,3-dihydro-1H-isoindol-5-yl}-N-[(1S,3R)-3-hydroxycyclohexyl]pyrazolo[1,5-a]pyrimidine-3-carboxamide], the concentration for half-maximal inhibition (IC50) at PI3Kγ (p120γ) (Table 1, p120γ) is below 100 nM; on PI3Kγ (setting [2]), below 100 nM.
`C[C@@H](C1CC1)N1Cc2cc(-c3ccn4nc(N)c(C(=O)N[C@H]5CC[C@H](C6(O)CC6)CC5)c4n3)cc(C(F)(F)F)c2C1=O` [Example 62, 2-Amino-5-(2-((S)-1-cyclopropylethyl)-1-oxo-7-(trifluoromethyl)isoindolin-5-yl)-N-(trans-4-(1-hydroxycyclopropyl)cyclohexyl)pyrazolo[1,5-a]pyrimidine-3-carboxamide]: the IC50 on PI3Kγ (p120γ) (Table 1, p120γ) is below 100 nM; on PI3Kγ (setting [2]) it was below 100 nM.
With `C[C@@H](C1CC1)N1Cc2cc(-c3ccn4nc(N)c(C(=O)NC5CC5)c4n3)cc(C(F)(F)F)c2C1=O` [Example 349], the IC50 on PI3Kγ (p120γ) (Table 3, p120γ) was below 100 nM; at PI3Kγ (Table 3, rhMCP-1 stimulated AKT pS473, read-out: cellular potency (PI3Kγ IC50)), 100 to 1000 nM.
Take `C[C@@H](C1CC1)N1Cc2cc(-c3ccn4nc(N)c(C(=O)Nc5cccnc5)c4n3)cc(N3CC[C@@H](O)C3)c2C1=O` [Example 438]: the half-maximal inhibitory concentration (IC50) at PI3Kγ (p120γ) (Table 6, p120γ) is below 100 nM; at PI3Kγ (setting [3]) it was 100 to 1000 nM.
With `Cc1cc(-c2ccn3nc(N)c(C(=O)NC4CC4)c3n2)cc2c1C(=O)N([C@@H]1CCC[C@@H](O)C1)C2` [Example 328], the concentration for half-maximal inhibition (IC50) is below 100 nM at PI3Kγ (p120γ) (Table 2, p120γ) and 100 to 1000 nM on PI3Kγ (setting [1]).
As to `CCc1cc(-c2ccn3nc(N)c(C(=O)N[C@@H](CO)C4CC4)c3n2)cc2c1C(=O)N([C@@H](C)C1CC1)C2` [Example 168, 2-Amino-N-[(1R)-1-cyclopropyl-2-hydroxyethyl]-5-{2-[(1S)-1-cyclopropylethyl]-7-ethyl-1-oxo-2,3-dihydro-1H-isoindol-5-yl}pyrazolo[1,5-a]pyrimidine-3-carboxamide], the IC50 at PI3Kγ (p120γ) (Table 1, p120γ) is below 100 nM; on PI3Kγ (setting [2]) it was below 100 nM.
On to `Cc1cc(-c2ccn3nc(N)c(C(=O)NC4CC4)c3n2)cc2c1C(=O)N([C@H]1CC[C@@H](O)C1)C2` [Example 322], for which the IC50 at PI3Kγ (p120γ) (Table 2, p120γ) is below 100 nM; at PI3Kγ (setting [1]), 100 to 1000 nM.
In the case of `C[C@@H](C1CC1)N1Cc2cc(-c3ccn4nc(N)c(C(=O)NC5CC5)c4n3)cc(OC3CC(F)(F)C3)c2C1=O` [Example 157, 2-Amino-N-cyclopropyl-5-{2-[(1S)-1-cyclopropylethyl]-7-(3,3-difluorocyclobutoxy)-1-oxo-2,3-dihydro-1H-isoindol-5-yl}pyrazolo[1,5-a]pyrimidine-3-carboxamide], the half-inhibitory concentration (IC50) on PI3Kγ (p120γ) (Table 1, p120γ) is below 100 nM; on PI3Kγ (setting [2]) it was below 100 nM.
Turning to `C[C@@H](C1CC1)N1Cc2cc(-c3ccn4nc(N)c(C(=O)N[C@@H]5CCC[C@H](N(C)C)C5)c4n3)cc(OC(F)(F)F)c2C1=O` [Example 34, 2-Amino-5-{2-[(1S)-1-cyclopropylethyl]-1-oxo-7-(trifluoromethoxy)-2,3-dihydro-1H-isoindol-5-yl}-N-[(1R,3S)-3-(dimethylamino)cyclohexyl]pyrazolo[1,5-a]pyrimidine-3-carboxamide], the 50% inhibitory concentration (IC50) is below 100 nM on PI3Kγ (p120γ) (Table 1, p120γ) and below 100 nM at PI3Kγ (setting [2]).
With `Cc1cc(-c2ccn3nc(N)c(C(=O)NC4COCc5ccccc54)c3n2)cc2c1C(=O)N([C@@H](C)C1CC1)C2` (stereo partly drawn) [Example 259], the half-inhibitory concentration (IC50) on PI3Kγ (p120γ) (Table 2, p120γ) is below 100 nM; at PI3Kγ (setting [1]) it was 100 to 1000 nM.
For `Cc1cc(-c2ccn3nc(N)c(C(=O)N[C@H](C)c4ccccc4F)c3n2)cc2c1C(=O)N(C(C)(C)CO)C2` [Example 317] the same measures were below 100 nM and above 1000 nM.
With `C[C@@H](C1CC1)N1Cc2cc(-c3ccn4nc(N)c(C(=O)N[C@H]5CC[C@@](C)(O)CC5)c4n3)cc(OC(F)(F)F)c2C1=O` [Example 24, 2-Amino-5-{2-[(1S)-1-cyclopropylethyl]-1-oxo-7-(trifluoromethoxy)-2,3-dihydro-1H-isoindol-5-yl}-N-[cis-4-hydroxy-4-methylcyclohexyl]pyrazolo[1,5-a]pyrimidine-3-carboxamide], the IC50 at PI3Kγ (p120γ) (Table 1, p120γ) was below 100 nM; on PI3Kγ (setting [2]), below 100 nM.
For the compound `Cc1cc(-c2ccn3nc(N)c(C(=O)N[C@@H](C)C4CCOCC4)c3n2)cc2c1C(=O)N([C@@H](C)C1CC1)C2` [Example 200], the IC50 is below 100 nM at PI3Kγ (p120γ) (Table 2, p120γ) and 100 to 1000 nM at PI3Kγ (setting [1]).
On the same counts, the results for `CC[C@H](CO)N1Cc2cc(-c3ccn4nc(N)c(C(=O)NC5CC5)c4n3)cc(C)c2C1=O` [Example 308] are below 100 nM and 100 to 1000 nM.
On to `C[C@@H](C1CC1)N1Cc2cc(-c3ccn4nc(N)c(C(=O)NC5CC5)c4n3)cc(NS(=O)(=O)N(C)C)c2C1=O` [Example 410], for which the IC50 was below 100 nM at PI3Kγ (p120γ) (Table 6, p120γ) and below 100 nM on PI3Kγ (setting [3]).
`C[C@H](N1Cc2cc(-c3ccn4nc(N)c(C(=O)N[C@@H](CO)C5CC5)c4n3)cc(NS(C)(=O)=O)c2C1=O)C(F)(F)F` [Example 120, 2-Amino-N-((R)-1-cyclopropyl-2-hydroxyethyl)-5-(7-(methylsulfonamido)-1-oxo-2-((S)-1,1,1-trifluoropropan-2-yl)isoindolin-5-yl)pyrazolo[1,5-a]pyrimidine-3-carboxamide]: the half-inhibitory concentration (IC50) at PI3Kγ (p120γ) (Table 1, p120γ) is below 100 nM; on PI3Kγ (setting [2]), below 100 nM.
Regarding `C[C@@H](C1CC1)N1Cc2cc(-c3ccn4nc(N)c(C(=O)Nc5cnn(C)c5)c4n3)cc(S(C)(=O)=O)c2C1=O` [Example 130, 2-Amino-5-{2-[(1S)-1-cyclopropylethyl]-7-methanesulfonyl-1-oxo-2,3-dihydro-1H-isoindol-5-yl}-N-(1-methyl-1H-pyrazol-4-yl)pyrazolo[1,5-a]pyrimidine-3-carboxamide], the half-maximal inhibitory concentration (IC50) on PI3Kγ (p120γ) (Table 1, p120γ) was below 100 nM; on PI3Kγ (setting [2]), below 100 nM.
`Cc1cc(-c2ccn3nc(N)c(C(=O)N[C@H]4CC[C@@H](C(=O)O)CC4)c3n2)cc2c1C(=O)N([C@@H](C)C1CC1)C2` [Example 193]: the IC50 was below 100 nM at PI3Kγ (p120γ) (Table 2, p120γ) and 100 to 1000 nM at PI3Kγ (setting [1]).

Source of the values: patent publication US20230024302A1, “2,3,5-TRISUBSTITUTED PYRAZOLO[1,5-A]PYRIMIDINE COMPOUNDS” (Arcus Biosciences, Inc., priority 2019, published 2023).
